Among the test systems are MOLT-4 leukemia; PC-3 prostate; MALME-3M melanoma; U251 CNS; OVCAR-8 ovarian; K-562 leukemia; NCI/ADR-RES ovarian; SK-OV-3 ovarian; UO-31 renal; MDA-MB-231 breast; OVCAR-4 ovarian; DU-145 prostate.
Assay in all cases: DTP human tumour cell line panel, 48 h

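Following 48 hours of exposure in 96-well plates, responses at five concentrations were used to interpolate endpoints linearly. GI50 = concentration required for 50% inhibition of growth. At the TGI there is no net growth.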

One may read the TGI as the concentration at which net growth stops. Read a low TGI as greater sensitivity of the cells. `C[n+]1c(-c2ccc(/C=N\Nc3ccnc(N/N=C/c4ccc(-c5cn6ccsc6[n+]5C)cc4)n3)cc2)cn2ccsc21`: the TGI in the assay on MOLT-4 leukemia is more than 100 µM; with PC-3 prostate, more than 100 µM; in the assay on MALME-3M melanoma, 85.4 µM; in the assay with U251 CNS, 94.5 µM; in the assay on OVCAR-8 ovarian, more than 100 µM; in the assay on K-562 leukemia, more than 100 µM. Further, the TGI with NCI/ADR-RES ovarian was more than 100 µM; in the assay on SK-OV-3 ovarian, more than 100 µM; with UO-31 renal it was more than 100 µM; in the assay on MDA-MB-231 breast, 67.3 µM; with OVCAR-4 ovarian it was more than 100 µM; with DU-145 prostate it was 78 µM.
For `O=Nn1c2ccccc2c2ccccc21`, the TGI with MOLT-4 leukemia, in the assay with PC-3 prostate, with MALME-3M melanoma, in the assay on U251 CNS, in the assay with OVCAR-8 ovarian and in the assay with K-562 leukemia was more than 100 µM in each case. In addition, the concentration for total growth inhibition (TGI) with NCI/ADR-RES ovarian, with SK-OV-3 ovarian, in the assay with UO-31 renal, in the assay on MDA-MB-231 breast, in the assay on OVCAR-4 ovarian and with DU-145 prostate was more than 100 µM in each case.
In the case of `CC(C)=NC(C(=O)O)C(C)(C)S` (stereo unspecified), the TGI in the assay on MOLT-4 leukemia, in the assay on PC-3 prostate, with MALME-3M melanoma, in the assay with U251 CNS, in the assay on OVCAR-8 ovarian and in the assay with K-562 leukemia was more than 100 µM each time. Also, the TGI with NCI/ADR-RES ovarian, with SK-OV-3 ovarian, with UO-31 renal, in the assay with MDA-MB-231 breast, in the assay with OVCAR-4 ovarian and with DU-145 prostate was more than 100 µM throughout.
For the molecule `CCOC(=O)CCCc1cc(=O)c2c(C)c3[nH]c4ccc(Cl)cc4c3c(C)c2[nH]1`, the concentration for total growth inhibition (TGI) with MOLT-4 leukemia was more than 100 µM; in the assay with PC-3 prostate, 70.6 µM; with MALME-3M melanoma it was 73.2 µM; with U251 CNS, 50.5 µM; in the assay on OVCAR-8 ovarian it was 59.8 µM; with K-562 leukemia, 79.6 µM. The TGI with NCI/ADR-RES ovarian is 66.2 µM; in the assay on UO-31 renal, 45.4 µM; with MDA-MB-231 breast, 69.7 µM; with OVCAR-4 ovarian it was 59.1 µM; in the assay on DU-145 prostate it was 57.2 µM.
Take `COc1ncnc2c(Cl)c(C(O)c3ccccc3)c(Cl)cc12` (stereo unspecified): the TGI in the assay on MOLT-4 leukemia is more than 100 µM; with PC-3 prostate it was more than 100 µM; in the assay on MALME-3M melanoma, 83 µM; in the assay on U251 CNS it was more than 100 µM; in the assay on OVCAR-8 ovarian, more than 100 µM; in the assay with K-562 leukemia, 69.3 µM. Also, the TGI with NCI/ADR-RES ovarian is more than 100 µM; in the assay on SK-OV-3 ovarian, 49 µM; in the assay on UO-31 renal, more than 100 µM; with MDA-MB-231 breast, 58.6 µM; with OVCAR-4 ovarian, more than 100 µM; in the assay with DU-145 prostate it was more than 100 µM.
Turning to `OCC1NC(CO)C(O)C1O` (stereo unspecified), the TGI with MOLT-4 leukemia, in the assay with PC-3 prostate, in the assay with MALME-3M melanoma, with U251 CNS, with OVCAR-8 ovarian and with K-562 leukemia was more than 100 µM throughout. Also, the TGI in the assay on NCI/ADR-RES ovarian, in the assay with SK-OV-3 ovarian, in the assay on UO-31 renal, in the assay with MDA-MB-231 breast, in the assay with OVCAR-4 ovarian and with DU-145 prostate was more than 100 µM each time.
`CC=C/C=C/[C@@H]1O[C@](O)([C@H](CC)C(=O)NC/C=C/C=C(\C)[C@@H](OC)[C@@H](C)[C@@H]2O[C@H](/C=C/C=C/C=C(\C)C(=O)c3c(O)cc[nH]c3=O)[C@H](O)[C@@H]2O)[C@H](O)[C@H](O)C1(C)C`: the TGI with MOLT-4 leukemia, in the assay on PC-3 prostate, with MALME-3M melanoma, with U251 CNS, with OVCAR-8 ovarian and in the assay on K-562 leukemia was more than 100 µM each time. The TGI in the assay with NCI/ADR-RES ovarian, in the assay on SK-OV-3 ovarian, in the assay with UO-31 renal and with OVCAR-4 ovarian was more than 100 µM throughout.
As to `COc1ccc(CCn2ccc(C)n2)c(OC)c1`, the total growth inhibition concentration (TGI) in the assay with MOLT-4 leukemia, in the assay with PC-3 prostate, in the assay on MALME-3M melanoma, in the assay with U251 CNS, in the assay on OVCAR-8 ovarian and in the assay on K-562 leukemia was more than 100 µM throughout. The TGI with NCI/ADR-RES ovarian, with SK-OV-3 ovarian, in the assay on UO-31 renal, in the assay with MDA-MB-231 breast, with OVCAR-4 ovarian and in the assay with DU-145 prostate was more than 100 µM each time.
As usually defined, the GI50 is the concentration giving 50% growth inhibition. Take `CC(C)N(CCNc1nc(C(Cl)(Cl)Cl)nc2cc(Cl)ccc12)C(C)C`: the GI50 was 1.15 µM in the assay with PC-3 prostate; 1.83 µM in the assay on MALME-3M melanoma; 1.21 µM in the assay with U251 CNS; 1.83 µM in the assay with OVCAR-8 ovarian; 1.54 µM in the assay with NCI/ADR-RES ovarian; 1.1 µM in the assay with MDA-MB-231 breast. In addition, the GI50 with OVCAR-4 ovarian was 1.35 µM; in the assay with DU-145 prostate, 1.61 µM. Moreover, the TGI in the assay with PC-3 prostate came out at 2.73 µM; in the assay with MALME-3M melanoma it was 3.98 µM; with U251 CNS, 2.53 µM; in the assay with OVCAR-8 ovarian, 3.4 µM; in the assay with NCI/ADR-RES ovarian, 3.39 µM; with MDA-MB-231 breast, 2.46 µM. The TGI was found to be 2.96 µM with OVCAR-4 ovarian and 3.76 µM in the assay on DU-145 prostate.
In the case of `Nc1nc(N)c(N=Nc2ccccc2)c(=O)[nH]1`, the TGI in the assay on MOLT-4 leukemia is more than 100 µM; in the assay with MALME-3M melanoma, 69.6 µM; with U251 CNS it was more than 100 µM; in the assay on OVCAR-8 ovarian it was more than 100 µM; in the assay with K-562 leukemia, more than 100 µM; in the assay with SK-OV-3 ovarian, more than 100 µM. Moreover, the TGI in the assay on UO-31 renal and in the assay on OVCAR-4 ovarian was more than 100 µM throughout.
As to `O=S1(=O)C[C@H](NCc2ccccc2)[C@H](NCc2ccccc2)C1`, the TGI in the assay with MOLT-4 leukemia, in the assay on PC-3 prostate, in the assay on MALME-3M melanoma, in the assay on U251 CNS, in the assay on OVCAR-8 ovarian and in the assay with K-562 leukemia was more than 100 µM each time. Further, the TGI in the assay on NCI/ADR-RES ovarian, in the assay with SK-OV-3 ovarian, in the assay with UO-31 renal, in the assay with MDA-MB-231 breast, in the assay with OVCAR-4 ovarian and in the assay with DU-145 prostate was more than 100 µM each time.
As to `CCOP(=O)(OCC)C(Cc1c[nH]c2ccccc12)C(=O)O` (stereo unspecified), the concentration for total growth inhibition (TGI) in the assay on MOLT-4 leukemia, with PC-3 prostate, in the assay on U251 CNS, in the assay on OVCAR-8 ovarian, in the assay on K-562 leukemia and in the assay on NCI/ADR-RES ovarian was more than 100 µM throughout. The TGI in the assay with SK-OV-3 ovarian, in the assay on UO-31 renal, in the assay on MDA-MB-231 breast, in the assay with OVCAR-4 ovarian and in the assay on DU-145 prostate was more than 100 µM throughout.
Take `O=C(Nc1ccc(C(F)(F)F)cc1[N+](=O)[O-])C(=O)Nn1c(=S)[nH]c2ccccc2c1=O`: the total growth inhibition concentration (TGI) with MOLT-4 leukemia, in the assay with MALME-3M melanoma, in the assay with U251 CNS, in the assay on OVCAR-8 ovarian, in the assay on K-562 leukemia and in the assay with SK-OV-3 ovarian was more than 100 µM throughout. Moreover, the TGI with UO-31 renal and with OVCAR-4 ovarian was more than 100 µM each time.
For the molecule `Cc1ccc(S(=O)(=O)NCCCSCCN)cc1`, the total growth inhibition concentration (TGI) in the assay with MOLT-4 leukemia, in the assay on PC-3 prostate, with U251 CNS, in the assay with OVCAR-8 ovarian, in the assay with K-562 leukemia and in the assay with NCI/ADR-RES ovarian was more than 100 µM in each case. Also, the total growth inhibition concentration (TGI) in the assay on SK-OV-3 ovarian, in the assay on UO-31 renal, in the assay on MDA-MB-231 breast, with OVCAR-4 ovarian and with DU-145 prostate was more than 100 µM each time.
Consider `COc1ccc(/C=C/c2cc(O)cc(OC3OC(CO)C(O)C(O)C3O)c2)cc1O` (stereo unspecified), for which the TGI with MOLT-4 leukemia, with PC-3 prostate, with MALME-3M melanoma, with U251 CNS, with OVCAR-8 ovarian and in the assay on K-562 leukemia was more than 100 µM throughout. Also, the TGI in the assay with NCI/ADR-RES ovarian, with SK-OV-3 ovarian, in the assay on UO-31 renal, in the assay with MDA-MB-231 breast, with OVCAR-4 ovarian and with DU-145 prostate was more than 100 µM in each case.

The values above are taken from PubChem BioAssay (NCI).
